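Briefly, cells in 96-well plates were exposed to five compound concentrations for 48 h, and endpoints were estimated by linear interpolation. The concentration for 50% growth inhibition is given as GI50.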 Calls of active or inactive are those of the source. No stated cut-off is given here; in the data, active = GI50 up to about 1.1 µM and inactive = higher.
Tests used:
Test in all cases: inhibition of tumour cell growth, NCI panel, 48 h
HOP-92 = system: HOP-92
MOLT-4 = system: MOLT-4
SNB-19 = system: SNB-19
UO-31 = system: UO-31
U-251 = system: U-251
786-0 = system: 786-0
LOX IMVI = system: LOX IMVI
HL-60 = system: HL-60
NCI-H226 = system: NCI-H226
SR = system: SR
T47D = system: T47D
CAKI-1 = system: CAKI-1
NCI-H460 = system: NCI-H460
HCT-116 = system: HCT-116
PC-3 = system: PC-3
HCT-15 = system: HCT-15
SK-MEL-2 = system: SK-MEL-2
A549 = system: A549
MDA-N = system: MDA-N

Structure (SMILES) | GI50 (HOP-92) | GI50 (MOLT-4) | GI50 (SNB-19) | GI50 (UO-31) | GI50 (U-251) | GI50 (786-0) | GI50 (LOX IMVI) | GI50 (HL-60) | GI50 (NCI-H226) | GI50 (SR) | GI50 (T47D) | GI50 (CAKI-1) | GI50 (NCI-H460) | GI50 (HCT-116) | GI50 (PC-3) | GI50 (HCT-15) [µM] | GI50 (SK-MEL-2) | GI50 (A549) | GI50 (MDA-N)
O=C(C[n+]1ccccc1)N/N=C(\Cc1nc2ccc([N+](=O)[O-])cc2nc1O)C(=O)Nc1cc(Cl)c(Cl)cc1Cl | > 100 µM (inactive) | > 100 µM (inactive) | > 100 µM (inactive) | 50.4 µM (inactive) | > 100 µM (inactive) | > 100 µM (inactive) | 60.1 µM (inactive) | > 100 µM (inactive) | 50.5 µM (inactive) | > 100 µM (inactive) | 68.7 µM (inactive) | 65.6 µM (inactive) | 87.9 µM (inactive) | > 100 µM (inactive) | > 100 µM (inactive) | > 100 | > 100 µM (inactive) | > 100 µM (inactive) | –
OCC1OC(c2cccc3cc(O)c(O)cc23)CC1O (stereo not drawn) | > 100 µM (inactive) | > 100 µM (inactive) | > 100 µM (inactive) | > 100 µM (inactive) | > 100 µM (inactive) | > 100 µM (inactive) | > 100 µM (inactive) | 42.3 µM (inactive) | 66.7 µM (inactive) | – | > 100 µM (inactive) | – | 80.7 µM (inactive) | > 100 µM (inactive) | > 100 µM (inactive) | > 100 | > 100 µM (inactive) | > 100 µM (inactive) | > 100 µM (inactive)
CN(C)c1ccc(/C=N\NC(=O)CSCC(=O)N/N=C/c2ccc(N(C)C)cc2)cc1 | > 100 µM (inactive) | 36.6 µM (inactive) | > 100 µM (inactive) | 30.8 µM (inactive) | 25.9 µM (inactive) | 55.1 µM (inactive) | 33.2 µM (inactive) | 70.5 µM (inactive) | 34.2 µM (inactive) | 73.8 µM (inactive) | 23.8 µM (inactive) | 64.1 µM (inactive) | 33.2 µM (inactive) | 46.9 µM (inactive) | 45.2 µM (inactive) | 16.4 | 29.9 µM (inactive) | 71.9 µM (inactive) | –
Cc1c(Cl)c(C)c(Cl)c(O)c1Cl | 19.1 µM (inactive) | 17.1 µM (inactive) | 30.5 µM (inactive) | 17.4 µM (inactive) | 16.3 µM (inactive) | 43.3 µM (inactive) | 26.2 µM (inactive) | 18.7 µM (inactive) | 15.1 µM (inactive) | – | 24.8 µM (inactive) | 21.4 µM (inactive) | 24.7 µM (inactive) | 18.2 µM (inactive) | 19.8 µM (inactive) | 21.8 | 13.2 µM (inactive) | 21.2 µM (inactive) | 24.6 µM (inactive)
Cc1cn([C@@H]2C[C@H](CO)[C@@H]2O)c(=O)[nH]c1=O | > 100 µM (inactive) | > 100 µM (inactive) | – | > 100 µM (inactive) | > 100 µM (inactive) | > 100 µM (inactive) | > 100 µM (inactive) | > 100 µM (inactive) | > 100 µM (inactive) | > 100 µM (inactive) | – | > 100 µM (inactive) | > 100 µM (inactive) | > 100 µM (inactive) | > 100 µM (inactive) | > 100 | > 100 µM (inactive) | > 100 µM (inactive) | > 100 µM (inactive)
COc1cc2c(cc1OCCCOc1cc3c(cc1OC)C(=O)N1CCC[C@H]1C(=O)N3)N=C[C@@H]1CCCN1C2=O | – | 0.206 µM (active) | 27.3 µM (inactive) | 18.5 µM (inactive) | 4.65 µM (inactive) | 29 µM (inactive) | 3.07 µM (inactive) | 8.34 µM (inactive) | 14.6 µM (inactive) | 1.54 µM (inactive) | 7.94 µM (inactive) | 29.9 µM (inactive) | 19.9 µM (inactive) | 26.4 µM (inactive) | 13.6 µM (inactive) | 71.3 | 12.6 µM (inactive) | 22.1 µM (inactive) | –
CC1(C)[C@@H](Cn2ccc(=O)[nH]c2=O)CC[C@@]1(C)CO | > 100 µM (inactive) | – | > 100 µM (inactive) | > 100 µM (inactive) | > 100 µM (inactive) | > 100 µM (inactive) | > 100 µM (inactive) | – | > 100 µM (inactive) | – | > 100 µM (inactive) | > 100 µM (inactive) | – | > 100 µM (inactive) | > 100 µM (inactive) | > 100 | > 100 µM (inactive) | > 100 µM (inactive) | > 100 µM (inactive)
Oc1cc(-c2ccccc2)nc2ncccc12 | 0.127 µM (active) | 0.0962 µM (active) | 0.222 µM (active) | 0.272 µM (active) | 0.0927 µM (active) | 0.16 µM (active) | 0.0552 µM (active) | 0.0471 µM (active) | 0.502 µM (active) | – | > 100 µM (inactive) | 0.0792 µM (active) | 0.12 µM (active) | 0.0719 µM (active) | 0.0681 µM (active) | 0.0227 | 0.0303 µM (active) | 0.385 µM (active) | 0.0129 µM (active)

— ChEMBL document CHEMBL1201862, “PubChem BioAssay data set” (2004)
